From PubChem BioAssay (NCI)
Converted amounts (≈) assume the structure as drawn.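 Cells were grown in 96-well plates and exposed to each compound for 48 hours at five concentrations; endpoints were interpolated linearly between bracketing concentrations, or set to the highest concentration if not reached. Abbreviation: GI50, concentration required for 50% inhibition of growth. TGI: concentration producing complete growth inhibition.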

Legend:
Experiment in all cases: NCI anticancer screen, dose series, 48 h
[1] = tested on: MCF7 breast
[2] = tested on: 786-0 renal
[3] = tested on: HT29 colon
[4] = tested on: DU-145 prostate
[5] = tested on: MOLT-4 leukemia
[6] = tested on: HCT-116 colon
[7] = tested on: UACC-62 melanoma
[8] = tested on: MDA-MB-435
[9] = tested on: OVCAR-8 ovarian
[10] = tested on: RPMI-8226 leukemia
[11] = tested on: SK-MEL-5 melanoma
[12] = tested on: MDA-N
[13] = tested on: IGROV1 ovarian
[14] = tested on: SF-539 CNS
[15] = tested on: MDA-MB-231 breast
[16] = tested on: HL-60(TB) leukemia
[17] = tested on: LOX IMVI melanoma
[18] = tested on: M14 melanoma
[19] = tested on: SW-620 colon
[20] = tested on: K-562 leukemia
[21] = tested on: T-47D breast
[22] = tested on: SN12C renal
[23] = tested on: U251 CNS
[24] = tested on: NCI/ADR-RES ovarian
[25] = tested on: CCRF-CEM leukemia
[26] = tested on: OVCAR-3 ovarian
[27] = tested on: UO-31 renal
[28] = tested on: CAKI-1 renal
[29] = tested on: HCC-2998 colon
[30] = tested on: UACC-257 melanoma
[31] = tested on: KM12 colon
[32] = tested on: PC-3 prostate
[33] = tested on: HOP-62 NSCLC
[34] = tested on: NCI-H23 lung
[35] = tested on: NCI-H460 lung
[36] = tested on: SK-MEL-2 melanoma
[37] = tested on: OVCAR-5 ovarian
[38] = tested on: RXF 393 renal
[39] = tested on: MALME-3M melanoma
[40] = tested on: HS 578T breast
[41] = tested on: SNB-19 CNS
[42] = tested on: NCI-H522 lung
[43] = tested on: EKVX NSCLC
[44] = tested on: A498 renal
[45] = tested on: HCT-15 colon
[46] = tested on: TK-10 renal
[47] = tested on: OVCAR-4 ovarian
[48] = tested on: SF-268 CNS
[49] = tested on: COLO 205 colon
[50] = tested on: SK-OV-3 ovarian
[51] = tested on: SF-295 CNS
[52] = tested on: SNB-75 CNS
[53] = tested on: BT-549 breast
[54] = tested on: ACHN renal
[55] = tested on: A549 NSCLC
[56] = tested on: SK-MEL-28 melanoma
[57] = tested on: NCI-H226 lung

## CC(=O)OCCOCN1C(=O)NC(=O)/C(=C/c2cccc(OCc3ccccc3)c2)C1=O
[1]
  GI50: 42.5 µg/mL (≈ 97 µM)
[2]
  GI50: 62.1 µg/mL (≈ 142 µM)
[3]
  GI50: 48 µg/mL (≈ 110 µM)
[4]
  GI50: 66 µg/mL (≈ 151 µM)
[5]
  GI50: 35.3 µg/mL (≈ 80.5 µM)
[6]
  GI50: 47.8 µg/mL (≈ 109 µM)
[7]
  GI50: 48.5 µg/mL (≈ 111 µM)
[8]
  GI50: 63.6 µg/mL (≈ 145 µM)
[9]
  GI50: 37.9 µg/mL (≈ 86.6 µM)
[10]
  GI50: 29.1 µg/mL (≈ 66.4 µM)
  TGI: 73.2 µg/mL (≈ 167 µM)
[11]
  GI50: 33.5 µg/mL (≈ 76.3 µM)
[12]
  GI50: 29.4 µg/mL (≈ 67.1 µM)
[13]
  GI50: 33.6 µg/mL (≈ 76.7 µM)
[14]
  GI50: 23.4 µg/mL (≈ 53.3 µM)
  TGI: 79.1 µg/mL
[15]
  GI50: 94.7 µg/mL (≈ 216 µM)
[16]
  GI50: 15 µg/mL (≈ 34.2 µM)
  TGI: 48.6 µg/mL
[17]
  GI50: 35.7 µg/mL (≈ 81.4 µM)
[18]
  GI50: 55.4 µg/mL (≈ 126 µM)
[19]
  GI50: 68.1 µg/mL (≈ 155 µM)
[20]
  GI50: 34.9 µg/mL (≈ 79.7 µM)
[21]
  GI50: 73.9 µg/mL (≈ 169 µM)
[22]
  GI50: 66 µg/mL (≈ 151 µM)
[23]
  GI50: 55.7 µg/mL (≈ 127 µM)
[24]
  GI50: 19.9 µg/mL (≈ 45.4 µM)
  TGI: 45.4 µg/mL
[25]
  GI50: 25 µg/mL (≈ 56.9 µM)
  TGI: 58.1 µg/mL
[26]
  GI50: 50.3 µg/mL (≈ 115 µM)
[27]
  GI50: 65.9 µg/mL (≈ 150 µM)

## O=C(Nc1cccc2ccccc12)c1ccccc1
[1]
  TGI: > 100 µM
[28]
  TGI: > 100 µM
[2]
  TGI: > 100 µM
[3]
  TGI: > 100 µM
[4]
  TGI: > 100 µM
[29]
  TGI: > 100 µM
[30]
  TGI: > 100 µM
[31]
  TGI: > 100 µM
[6]
  TGI: > 100 µM
[32]
  TGI: > 100 µM
[33]
  TGI: > 100 µM
[34]
  TGI: > 100 µM
[35]
  TGI: > 100 µM
[36]
  TGI: > 100 µM
[7]
  TGI: > 100 µM
[8]
  TGI: > 100 µM
[37]
  TGI: > 100 µM
[38]
  TGI: > 100 µM
[39]
  TGI: > 100 µM
[40]
  TGI: > 100 µM
[9]
  TGI: > 100 µM
[41]
  TGI: > 100 µM
[42]
  TGI: > 100 µM
[43]
  TGI: > 100 µM
[11]
  TGI: > 100 µM
[44]
  TGI: > 100 µM
[12]
  TGI: > 100 µM
[13]
  TGI: > 100 µM
[45]
  TGI: > 100 µM
[14]
  TGI: > 100 µM
[46]
  TGI: > 100 µM
[15]
  TGI: > 100 µM
[16]
  TGI: > 100 µM
[17]
  TGI: > 100 µM
[18]
  TGI: > 100 µM
[47]
  TGI: > 100 µM
[48]
  TGI: > 100 µM
[19]
  TGI: > 100 µM
[49]
  TGI: > 100 µM
[50]
  TGI: > 100 µM
[51]
  TGI: > 100 µM
[52]
  TGI: > 100 µM
[20]
  TGI: > 100 µM
[21]
  TGI: 81.6 µM
[22]
  TGI: > 100 µM
[23]
  TGI: > 100 µM
[24]
  TGI: > 100 µM
[53]
  TGI: > 100 µM
[54]
  TGI: > 100 µM
[55]
  TGI: > 100 µM
[56]
  TGI: > 100 µM
[57]
  TGI: > 100 µM
[25]
  TGI: > 100 µM
[26]
  TGI: > 100 µM
[27]
  TGI: > 100 µM
